Publication PMC4536990, “Efficacy of the antimicrobial peptide TP4 against Helicobacter pylori infection: in vitro membrane perturbation via micellization and in vivo suppression of host immune responses in a mouse model” (Oncotarget, 2015)
Where a SMILES comes first, the peptide text is derived from it.

Key:
C3H/HeN mice [1] = experiment: Dermal toxicity; assay type: in vivo
Description: (§1) Figure 11 TP4 toxicity safety evaluations in New Zealand albino rabbits and C3H/HeN mice (A) Eye irritation test: Ocular appearances of controls, and rabbits treated with TP4 or SDS for 7 days. […] (B) Dermal toxicity: appearances of the skin of mice treated with TP4 at 48 hr post-exposure.
(§2) Oral toxicity: Acute oral toxicity was assessed in C3H/HeN mice with 6 animals per group, by single oral administration of TP4 (125 mg/kg). After dose administration, the animals were kept under observation for a minimum of 48 hr. The mortality rate and clinical signs were recorded. Sub-acute oral toxicity was assessed by administering 600 μg dose/day for 14 days. During dose administration, the animals were observed every day for any signs of toxicity. After the treatment period, the animals were kept under observation for 14 days. The morbidity, mortality, and other clinical signs were recorded and assessed. Dermal Toxicity was assessed by topical application of TP4 at 10 times the effective dose to skin at the dorsal side of mice. After administration, the animals were kept under observation for a minimum of 48 h. Clinical signs were noted if the animals were in the morbid stage or presented with any abnormalities. Eye irritation test in New Zealand white rabbits: Healthy young adult rabbits were used in the experiment. Eyes were treated with TP4, PBS (vehicle control), or 0.1% SDS (positive control). A repeated dose of 1 mg/kg was administered every day for 7 days. During the treatment period, the eyes were examined on days 1, 3, 5, and 7, and allowed to recover until day 14. Clinical signs were recorded during the test period, and grades were assigned for ocular reactions observed during each examination. All procedures, care, and handling of rabbits were approved by the laboratory animal ethics committee of National Taiwan Ocean University.

C3H/HeN mice [2] = experiment: Sub-acute oral toxicity; assay type: in vivo; conditions: three-fold therapeutic dose (600 μg dose/day) orally for 14 days, observed days 1 to 28, n=6
Description: Sub-acute oral toxicity: Three-fold therapeutic doses were orally administered to mice for 14 days.
as §2, with “A repeated dose of 1 mg/kg was administered every day for 7 days. During the treatment period, the eyes were examined on days 1, 3, 5, and 7, and allowed to recover until day 14.” left out, “All procedures, care, and handling of rabbits were approved by the laboratory animal ethics committee of National Taiwan Ocean University.” left out

H. pylori = assay type: cell-based, Helicobacter pylori; conditions: 24 h
Description: Frozen cultures were streaked onto BHI agar with 10% sheep blood, and incubated for 24 hr under microaerophilic conditions. H. pylori cells undergoing exponential growth were suspended in sterile phosphate-buffered saline (PBS), and adjusted to 0.05 OD using BHI broth; the resulting inoculum was dispensed onto a microtitre plate. Peptide TP4 was prepared at various concentrations (0.04 to 50 μg mL^−1) using PBS. Antibiotic resistant clinical isolate CI-HC-028 and three reference strains were used for susceptibility testing. All plates were incubated under microaerophilic conditions at 37°C overnight. The MIC was defined as the lowest concentration of the drug at which there was no visible growth. For quality control and comparative analyses, we examined the susceptibility of all four H. pylori strains to the antibiotics amoxicillin, clarithromycin, and metronidazole (Sigma Chemical Co., St. Louis, MO).

[3] = test system: New Zealand white rabbits; experiment: Eye irritation test in rabbits (OECD 405); assay type: in vivo; conditions: for Abnormality iris grade / Chemosis grade / Conjunctivae Redness grade / Corneal opacity grade: OECD 405 grading
Description: as §1, §2

C3H/HeN mice [4] = experiment: Acute oral toxicity; assay type: in vivo; conditions: single oral dose 125 mg/kg, n=6, observed 24 hours
Description: as §2, with “After dose administration, the animals were kept under observation for a minimum of 48 hr.” left out, “All procedures, care, and handling of rabbits were approved by the laboratory animal ethics committee of National Taiwan Ocean University.” left out

[5] = test system: human and mouse cell lines; conditions: cited from earlier work
Source text: (§3) A more complete understanding of how these short amphipathic cationic AMPs bring about bacterial cell death and host immunomodulation is needed for further optimization and development for clinical applications.

[6] = cited from earlier work
Source text: as §3

Question: With CC[C@H](C)[C@H](NC(=O)[C@H](C)NC(=O)[C@H](CCCCN)NC(=O)CNC(=O)[C@H](C)NC(=O)[C@H](CO)NC(=O)[C@H](Cc1ccccc1)NC(=O)[C@H](CC(C)C)NC(=O)CNC(=O)CNC(=O)[C@@H](NC(=O)[C@@H](NC(=O)[C@H](Cc1c[nH]cn1)NC(=O)[C@H](Cc1c[nH]cn1)NC(=O)[C@@H](NC(=O)[C@@H](N)Cc1ccccc1)[C@@H](C)CC)[C@@H](C)CC)[C@@H](C)CC)C(=O)N[C@@H](Cc1c[nH]cn1)C(=O)N[C@@H](CCCNC(=N)N)C(=O)N[C@@H](CC(C)C)C(=O)N[C@H](C(=O)N[C@@H](CCCNC(=N)N)C(=O)N[C@@H](CCCNC(=N)N)C(=O)N[C@@H](CCCNC(=N)N)C(=O)N[C@@H](CCCNC(=N)N)C(=O)N[C@@H](CCCNC(=N)N)C(N)=O)[C@@H](C)CC [TP4] (H-FIHHIIGGLFSAGKAIHRLIRRRRR-NH2) as the molecule, how does the “skin appearance, lesions” value (C3H/HeN mice [1]; 48 hr post-exposure, after residue removal, 125 mg/kg TP4 or 20% SDS, n=12 per group) read?
Answer: No obvious lesions

Question: What about the “dermal toxicity, mortality or damaging effects” value (C3H/HeN mice [1]; topical, 10 times the effective dose, 14-day observation) of the same molecule?
Answer: did not result in mortality or damaging effects

Question: What about the “sub-acute oral toxicity, clinical signs” value (C3H/HeN mice [2]) of the same molecule?
Answer: did not induce clinical complications in mice

Question: What about the MIC (H. pylori) of the same molecule?
Answer: 1.5 to 3 µg/mL

Question: And the Abnormality iris grade ([3]; Day 1)?
Answer: 0

Question: What about the Chemosis grade ([3]; Day 1) of the same molecule?
Answer: 0

Question: What about the “Conjunctivae Redness grade” value ([3]; Day 1) of the same molecule?
Answer: 0

Question: And the Corneal opacity grade ([3]; Day 1, rabbit eye, daily for 7 days (TP4 1 mg/kg; SDS 0.1%))?
Answer: 0

Question: What about the Abnormality iris grade ([3]; Day 3) of the same molecule?
Answer: 0

Question: What about the Chemosis grade ([3]; Day 3) of the same molecule?
Answer: 0.1

Question: What about the “Conjunctivae Redness grade” value ([3]; Day 3) of the same molecule?
Answer: 0

Question: What about the Corneal opacity grade ([3]; Day 3) of the same molecule?
Answer: 0

Question: And the Abnormality iris grade ([3]; Day 5)?
Answer: 0

Question: What about the Chemosis grade ([3]; Day 5) of the same molecule?
Answer: 0.1

Question: And the “Conjunctivae Redness grade” value ([3]; Day 5)?
Answer: 0.5

Question: And the Corneal opacity grade ([3]; Day 5)?
Answer: 0.1

Question: What about the Abnormality iris grade ([3]; Day 7) of the same molecule?
Answer: 0

Question: And the Chemosis grade ([3]; Day 7)?
Answer: 0.1

Question: And the “Conjunctivae Redness grade” value ([3]; Day 7)?
Answer: 0

Question: And the Corneal opacity grade ([3]; Day 7)?
Answer: 0.3

Question: What about the Abnormality iris grade ([3]; Recovery, Day 14) of the same molecule?
Answer: 0

Question: And the Chemosis grade ([3]; Recovery, Day 14)?
Answer: 0

Question: What about the “Conjunctivae Redness grade” value ([3]; Recovery, Day 14) of the same molecule?
Answer: 0

Question: What about the Corneal opacity grade ([3]; Recovery, Day 14) of the same molecule?
Answer: 0

Question: What about the ocular appearance ([3]; rabbits treated for 7 days, observed daily) of the same molecule?
Answer: no ocular lesions were detected

Question: What about the “acute oral toxicity, clinical signs and vital organs” value (C3H/HeN mice [4]) of the same molecule?
Answer: did not exhibit any abnormal clinical signs

Question: What about the “toxicity against cell lines” value [5] of the same molecule?
Answer: low toxicity against human and mouse cell lines

Question: And the hemolytic activity [6]?
Answer: low hemolytic activity
